These results are taken from US20260337182A1, “COMPOUNDS AND COMPOSITIONS USEFUL AS INHIBITORS OF IAPs” (Tract Pharmaceuticals, Inc., priority 2022, published 2026).

What is called IC50 is the concentration needed to halve the response being measured.

Series [1] relates to Barrett's esophagus cells. The experiment in a line: percent survival of Barrett's esophagus cells. The class given is cell-based, human. The conditions noted are these: FIG. 1; for sensitivity of Barrett's esophagus cells compared to the other compounds of Table 1: versus other IAP inhibitors of Table 1. Here is the method:
FIG. 1 depicts treatment of Barrett's esophagus cells with compounds described herein. The concentration of the compound used and percent survival of the cells is provided.
Cells isolated from individuals diagnosed with or suffering from Barrett's esophagus were treated with the indicated compounds.
(§1) The present example describes methods used for testing the efficacy of compounds described herein. The selective growth of stem cells of cancers, of their precursor lesions, and of normal and chronically diseased epithelial tissues is described in the references below. In brief, biopsied tissues are reduced to single cell suspensions and plated onto lawns of irradiated 3T3-J2 feeder cells in specialized StemEcho media and libraries of colonies are evident in 7-10 days. Single cell-derived clones are generated by single cell FACS sorting to 384 well plates and wells with individual colonies are expanded, analyzed by molecular genetics, and grown as discrete clones.
(§2) Approximately 400,000 cells from discrete clones relevant to particular disease states (cancer, chronic inflammatory disease) are plated into 384 plates previously seeded with irradiated feeder cells, allowed to grow for 5 days, and then exposed to the test compounds in a serial dilution format. After 2-5 days, the cells are fixed using paraformaldehyde and the human cells are labelled with human-specific antibodies followed by fluorochrome-labelled secondary antibodies. Human cell numbers are quantified via high-throughput imaging technology (CellInsight CX7 LED, Thermo), and data analyzed by Excel.

The subject of series [2] is esophageal adenocarcinoma stem cells. In words: percent survival of esophageal adenocarcinoma stem cells. Format: cell-based, human. Particulars: FIG. 2; versus other IAP inhibitors of Table 1. From the text:
FIG. 2 depicts treatment of esophageal adenocarcinoma stem cells with compounds described herein. The concentration of the compound used and percent survival of the cells is provided.
FIG. 6 depicts treatment of Barrett's low grade dysplasia and esophageal adenocarcinoma with compound I-1. FIG. 6A depicts the % survival of Barrett's low grade dysplasia stem cells at higher concentration of compound I-1. FIG. 6B depicts the % survival of Barrett's low grade dysplasia stem cells at lower concentration of compound I-1. FIG. 6C depicts the % survival of esophageal adenocarcinoma stem cells at higher concentration of compound I-1. […]
(§3) The present example describes methods used for testing the efficacy of compounds described herein. […] Single cell-derived clones are generated by single cell FACS sorting to 384 well plates and wells with individual colonies are expanded, analyzed by molecular genetics, and grown as discrete clones.
(§4) Approximately 400,000 cells from discrete clones relevant to particular disease states (cancer, chronic inflammatory disease) are plated into 384 plates previously seeded with irradiated feeder cells, allowed to grow for 5 days, and then exposed to the test compounds in a serial dilution format. […] Human cell numbers are quantified via high-throughput imaging technology (CellInsight CX7 LED, Thermo), and data analyzed by Excel.

Series [3] has as its system lung adenocarcinoma stem cells. The experiment in a line: percent survival of lung adenocarcinoma stem cells. Format: cell-based, human. Particulars: FIG. 3A, 3B. The protocol:
FIG. 3 depicts treatment of lung adenocarcinoma stem cells with compound I-1. FIG. 3A depicts the % survival of lung adenocarcinoma stem cells at higher concentration of compound I-1. FIG. 3B depicts the % survival of lung adenocarcinoma stem cells at lower concentration of compound I-1.
Specifically, lung adenocarcinoma stem cells from an additional individual were tested and treated at higher (nM) or low (pM) concentrations of I-1 (FIG. 3A and FIG. 3B).
The present example describes methods used for testing the efficacy of compounds described herein. The selective growth of stem cells of cancers, of their precursor lesions, and of normal and chronically diseased epithelial tissues is described in the references below. […] Single cell-derived clones are generated by single cell FACS sorting to 384 well plates and wells with individual colonies are expanded, analyzed by molecular genetics, and grown as discrete clones.
as §4

Series [4] has as its system advanced Barrett's esophagus stem cells. The experiment in a line: percent survival of advanced Barrett's esophagus stem cells. Format: cell-based, human. From the text: FIG. 4 depicts treatment of advanced Barrett's esophagus stem cells with compound I-1 in cells isolated from two different patients. FIG. 4A depicts the % survival of Barrett's esophagus stem cells from a first patient at higher concentration of compound I-1. FIG. 4B depicts the % survival of Barrett's esophagus cells from a first patient at lower concentration of compound I-1. FIG. 4C depicts the % survival of Barrett's esophagus cells from a second patient at higher concentration of compound I-1. FIG. 4D depicts the % survival of Barrett's esophagus stem cells from a second patient at lower concentration of compound I-1.
FIG. 7 depicts treatment of various diseases with compounds I-2 and I-5. FIG. 7A depicts % survival of diffused gastric adenocarcinoma with ascites cells with varying concentrations of compounds I-2 and I-5. FIG. 7B depicts % survival of advanced Barret's cells with varying concentrations of compounds I-2 and I-5. FIG. 7C depicts % survival of high-grade serous ovarian cancer cells with varying concentrations of compounds I-2 and I-5. […]
The present example describes methods used for testing the efficacy of compounds described herein. […] Single cell-derived clones are generated by single cell FACS sorting to 384 well plates and wells with individual colonies are expanded, analyzed by molecular genetics, and grown as discrete clones. […]

The subject of series [5] is Barrett's high grade dysplasia stem cells. In words: percent survival of Barrett's high grade dysplasia stem cells. Format: cell-based, human. Particulars: FIG. 5A, 5B.
Source text: FIG. 5 depicts treatment of Barrett's high grade dysplasia and diffuse gastric cancer with compound I-1. FIG. 5A depicts the % survival of Barrett's high grade dysplasia stem cells at higher concentration of compound I-1. FIG. 5B depicts the % survival of Barrett's high grade dysplasia stem cells at lower concentration of compound I-1. FIG. 5C depicts the % survival of diffuse gastric cancer stem cells at higher concentration of compound I-1. FIG. 5D depicts the % survival of diffuse gastric cancer stem cells at lower concentration of compound I-1.
(§5) FIG. 8 depicts treatment of Barrett's low grade dysplasia and high grade dysplasia with compounds I-1; I-2; I-6; and I-3. […]
as §3, §4

Series [6] deals with Barrett's low grade dysplasia stem cells. In words: percent survival of Barrett's low grade dysplasia stem cells. The conditions noted are these: FIG. 6A, 6B. The class given is cell-based, human.
Source text: FIG. 6 depicts treatment of Barrett's low grade dysplasia and esophageal adenocarcinoma with compound I-1. FIG. 6A depicts the % survival of Barrett's low grade dysplasia stem cells at higher concentration of compound I-1. FIG. 6B depicts the % survival of Barrett's low grade dysplasia stem cells at lower concentration of compound I-1. FIG. 6C depicts the % survival of esophageal adenocarcinoma stem cells at higher concentration of compound I-1. FIG. 6D depicts the % survival of esophageal adenocarcinoma cells at lower concentration of compound I-1.
as §5, §3, §4

The subject of another series is cIAP1. The conditions noted are these: inhibits cIAP1; cited from earlier work.
Series [7] relates to pancreatic cancer stem cells. The experiment in a line: percent survival of pancreatic cancer stem cells. The class given is cell-based, human. The conditions noted are these: varying concentrations; FIG. 9.
Source text: FIG. 9 depicts treatment of pancreatic cancer with compounds I-9, I-10; I-3; I-11. FIG. 9 depicts the % survival of pancreatic cancer stem cells at varying concentrations of I-9; I-10; I-3; I-11.
as §1, §2

Series [8] relates to gastric cancer stem cells. In words: percent survival of (diffuse) gastric cancer stem cells. The class given is cell-based, human. Particulars: two individuals with diffuse gastric cancer; FIG. 7A, 7D.
Source text: FIG. 7 depicts treatment of various diseases with compounds I-2 and I-5. FIG. 7A depicts % survival of diffused gastric adenocarcinoma with ascites cells with varying concentrations of compounds I-2 and I-5. FIG. 7B depicts % survival of advanced Barret's cells with varying concentrations of compounds I-2 and I-5. FIG. 7C depicts % survival of high-grade serous ovarian cancer cells with varying concentrations of compounds I-2 and I-5. FIG. 7D depicts % survival of gastric cancer with varying concentrations of compounds I-2 and I-5. FIG. 7E depicts % survival taxol resistant ovarian cancer stem cells with varying concentrations of compounds I-2 and I-5. […]
as §3, §4

For the compound `CN[C@@H](C)C(=O)N[C@H](C(=O)N1CCC[C@H]1C(=O)N[C@H]1c2ccccc2C[C@H]1OCCOCCNc1c(NCCOCCO[C@@H]2Cc3ccccc3[C@@H]2NC(=O)[C@@H]2CCCN2C(=O)[C@@H](NC(=O)[C@H](C)NC)C2CCCCC2)c(=O)c1=O)C1CCCCC1` [I-1], in [1], the “sensitivity of Barrett's esophagus cells” value is “particularly sensitive” and the “sensitivity of Barrett's esophagus cells compared to the other compounds of Table 1” value was “significantly more sensitive”. The “sensitivity of esophageal adenocarcinoma stem cells compared to the other compounds of Table 1” value in series [2] was “significantly more sensitive”. For the same compound, in series [3] (higher (nM) or low (pM) concentrations), the “sensitivity of lung adenocarcinoma stem cells” value is recorded as “demonstrate the sensitivity”. Also, the “lethality compared with another highly potent cytotoxic treatment” value in series [3] (higher and lower concentration) is “comparable lethality to another highly potent cytotoxic treatment”. In [4] (two individuals, higher (nM) or low (pM) concentrations, FIG. 4A-4D), the “sensitivity of advanced Barrett's esophagus stem cells” value is listed as “demonstrates the sensitivity”. Further, the “sensitivity of Barrett's high grade dysplasia stem cells” value in series [5] is reported as “sensitive”. In addition, the “sensitivity of Barrett's low grade dysplasia stem cells” value in [6] is “sensitive”.

`CN[C@@H](C)C(=O)N[C@H](C(=O)N1CCC[C@H]1c1nc(C(=O)c2ccc(F)cc2)cs1)C1CCCCC1` [LCL 161]: in the series on cIAP1, the IC50 was 0.4 nM.

In the case of `CN[C@@H](C)C(=O)N[C@H](C(=O)N1CCC[C@H]1C(=O)N[C@H]1c2ccccc2C[C@H]1OCCCCCNc1c(NCCCCCO[C@@H]2Cc3ccccc3[C@@H]2NC(=O)[C@@H]2CCCN2C(=O)[C@@H](NC(=O)[C@H](C)NC)C2CCCCC2)c(=O)c1=O)C1CCCCC1` [I-3], the “sensitivity of pancreatic cancer stem cells” value in series [7] is on record as “sensitive”.

On to `CN[C@@H](C)C(=O)N[C@H](C(=O)N1CCC[C@H]1C(=O)N[C@H]1c2ccccc2C[C@H]1OCCNc1c(NCCO[C@@H]2Cc3ccccc3[C@@H]2NC(=O)[C@@H]2CCCN2C(=O)[C@@H](NC(=O)[C@H](C)NC)C2CCCCC2)c(=O)c1=O)C1CCCCC1` [I-2], for which, in series [1], the “sensitivity of Barrett's esophagus cells” value is reported as “particularly sensitive” and the “sensitivity of Barrett's esophagus cells compared to the other compounds of Table 1” value is “significantly more sensitive”. The “sensitivity of esophageal adenocarcinoma stem cells compared to the other compounds of Table 1” value in series [2] is “significantly more sensitive”. Also, the “sensitivity of advanced Barrett's esophagus stem cells” value in series [4] (additional individual, varying concentrations, FIG. 7B) is reported as “notably sensitive”. The “sensitivity of gastric cancer stem cells” value in [8] was “sensitive”.

In the case of `CN[C@@H](C)C(=O)N[C@H](C(=O)N1CCC[C@H]1C(=O)N[C@H]1c2ccccc2C[C@H]1OCCCCNc1c(NCCCCO[C@@H]2Cc3ccccc3[C@@H]2NC(=O)[C@@H]2CCCN2C(=O)[C@@H](NC(=O)[C@H](C)NC)C2CCCCC2)c(=O)c1=O)C1CCCCC1` [I-10], the “sensitivity of pancreatic cancer stem cells” value in series [7] was “sensitive”.

As for `CN[C@@H](C)C(=O)N[C@H](C(=O)N1CCC[C@H]1C(=O)N[C@H]1c2ccccc2C[C@H]1OCCCNc1c(NCCCO[C@@H]2Cc3ccccc3[C@@H]2NC(=O)[C@@H]2CCCN2C(=O)[C@@H](NC(=O)[C@H](C)NC)C2CCCCC2)c(=O)c1=O)C1CCCCC1` [I-9], the “sensitivity of pancreatic cancer stem cells” value in [7] is recorded as “sensitive”.

Take `CN[C@@H](C)C(=O)N[C@H](C(=O)N1CCC[C@H]1C(=O)N[C@H]1c2ccccc2C[C@H]1OCCCCCCNc1c(NCCCCCCO[C@@H]2Cc3ccccc3[C@@H]2NC(=O)[C@@H]2CCCN2C(=O)[C@@H](NC(=O)[C@H](C)NC)C2CCCCC2)c(=O)c1=O)C1CCCCC1` [I-11]: in series [7], the “sensitivity of pancreatic cancer stem cells” value is “sensitive”.
